Measured values: PMC7824787, “Design, Synthesis and In Vitro Investigation of Novel Basic Celastrol Carboxamides as Bio-Inspired Leishmanicidal Agents Endowed with Inhibitory Activity against Leishmania Hsp90” (Biomolecules, 2021)
Read-outs that look alike come from different tables or passages of the source.

Legend:
[1] = system: L. infantum promastigotes; assay: Antileishmanial activity on L. infantum promastigotes (MTT); type: cell-based
[2] = system: L. tropica promastigotes; assay: Antileishmanial activity on L. tropica promastigotes (MTT); type: cell-based
Experimental: Promastigote stage of L. infantum (MHOM/TN/80/IPT1, kindly provided by Dr. M. Gramiccia and Dr. T. Di Muccio, ISS, Roma) and L. tropica (MHOM/SY/2012/ISS3130) were cultured in RPMI 1640 medium (EuroClone) supplemented with 15% heat-inactivated fetal calf serum (EuroClone, Milan, Italy), 20 mM HEPES, and 2 mM L-glutamine at 23 °C. The MTT (3-[4.5-dimethylthiazol-2-yl]-2.5-diphenyltetrazolium bromide) method was used to estimate the 50% inhibitory concentration (IC50), with some modifications. Compounds were dissolved in DMSO and then diluted with medium to achieve the required concentrations. Test compounds were placed in 96 wells round bottom microplates and seven serial dilutions made. Amphotericin B was used as the reference antileishmanial drug. Parasites were diluted in complete medium to 5 × 10^6 parasites/mL and 100 μL of the suspension was seeded into the plates and incubated at 23 °C for 72 h. Then 20 μL of MTT solution (5 mg/mL) was added into each well, after 3 h the plates were centrifuged, the supernatants discarded and the resulting pellets dissolved in 100 μL of lysing buffer consisting of 20% (w/v) of a solution of SDS (Sigma), 40% of N,N-dimethylformamide (Merck) in H2O. The absorbance of the obtained solutions was measured at a wavelength of 550 nm with a reference at 650 nm with a microplate spectrophotometer (Synergy 4-Biotek, Milan, Italy) and analyzed with the Gen5® software for data processing.
The results are expressed as IC50, the dose of compound that is necessary to inhibit cell growth by 50%; each IC50 value is the mean ± standard deviation of at least three separate experiments performed in duplicate.

[3] = system: HMEC-1; assay: Cytotoxicity on HMEC-1 (MTT); type: cell-based, human; conditions: Homo sapiens, read-out: Healthy Cell Lines IC50, HMEC-1
Experimental: (§1) Cytotoxicity was evaluated on human microvascular endothelial cells (HMEC-1, provided by the Centers for Disease Control, Atlanta, GA, USA), on immortalized mouse C57Bl/6 bone marrow derived macrophages (BMDM) from wild type lineage (generated in the laboratories of Drs. Douglas Golenbock and Kate Fitzgerald, University of Massachusetts, Worcester, MA, USA) and on a human acute monocytic leukaemia cell line (THP-1).
(§2) HMEC-1 were maintained in MCDB 131 medium (Invitrogen, Milan, Italy) supplemented with 10% fetal calf serum (HyClone), 10 ng/mL of epidermal growth factor, 1 μg/mL of hydrocortisone, 2 mM glutamine and 20 mM HEPES buffer, at 37 °C in 5% CO2. BMDM were maintained in DMEM (Euroclone) medium supplemented with 10% fetal bovine serum (HyClone, Celbio, Milan, Italy), 2 mM glutamine, and 25 mM of HEPES buffer solution (Euroclone). THP-1 were maintained in RPMI supplemented with 10% heat-inactivated FCS, 50 µM 2-mercaptoethanol, 10 µM sodium pyruvate, 20 mM HEPES, and 2 mM glutamine. In order to achieve differentiation into macrophages, cells were treated with 10 ng/mL phorbol myristate acetate (PMA) for 72 h.
(§3) For the cytotoxicity assay, cells were seeded in 96 well flat bottom tissue culture clusters (Costar, New York, NY, USA) at the following concentrations: HMEC 10^5 cell/mL, BMDM at 10^6 cell/mL, THP1 at 5 × 10^5 cell/mL. After 24 h, cells were treated with serial dilutions of test compounds in a final volume of 200 µL/well. Cell proliferation was evaluated after 72 h using the MTT assay.
(§4) The absorbances were measured with a microplate spectrophotometer (Synergy 4-Biotek) at a test wavelength of 550 nm and a reference wavelength of 650 nm. The results are expressed as IC50 as the concentration inhibiting 50% of cell growth. Each IC50 value is the mean and standard deviation of at least three separate experiments performed in duplicate.

[4] = system: THP-1; assay: Cytotoxicity on THP-1 (MTT); type: cell-based, human; conditions: Homo sapiens, THP-1; PMA-differentiated, 72 h, MTT; read-out: Healthy Cell Lines IC50, THP-1
Experimental: as §1, §2, §3, §4

[5] = system: BMDM; assay: Cytotoxicity on BMDM (MTT); type: cell-based, mouse; conditions: Mus musculus, BMDM; 72 h, MTT; read-out: Healthy Cell Lines IC50, BMDM
Experimental: as §1, §2, §3, §4

[6] = Leishmania infantum, 72 h, 23 °C, MTT, read-out: Leishmania Promastigotes IC50, L. infantum
[7] = Leishmania tropica, 72 h, 23 °C, MTT, read-out: Leishmania Promastigotes IC50, L. tropica
[8] = 72 h, 23 °C, MTT; read-out: Leishmania Promastigotes IC50, L. infantum
[9] = 72 h, 23 °C, MTT; read-out: Leishmania Promastigotes IC50, L. tropica

| SMILES | IC50 [1, 6] [nM] | IC50 [2, 7] [nM] | IC50 ([3]; HMEC-1, 72 h, MTT) [nM] | IC50 [4] [nM] | IC50 [5] [nM] | IC50 [1, 8] [nM] | IC50 [2, 9] [nM] | IC50 ([1]; Leishmania infantum; 72 h, 23 °C, MTT; read-out: Leishmania Promastigotes IC50, L. infantum) [nM] | IC50 ([2]; Leishmania tropica; 72 h, 23 °C, MTT; read-out: Leishmania Promastigotes IC50, L. tropica) [nM] | IC50 ([3]; HMEC-1, 72 h) [nM] |
| --- | --- | --- | --- | --- | --- | --- | --- | --- | --- | --- |
| CC1=C(O)C(=O)C=C2C1=CC=C1[C@@]2(C)CC[C@@]2(C)[C@@H]3C[C@](C)(C(=O)NCC45CCCN4CCC5)CC[C@]3(C)CC[C@]12C [compound 5, (2R,4aS,6aS,12bR,14aS,14bR)-N-((hexahydro-1H-pyrrolizin-7a-yl)methyl)-10-hydroxy-2,4a,6a,9,12b,14a-hexamethyl-11-oxo-1,2,3,4,4a,5,6,6a,11,12b,13,14,14a,14b-tetradecahydropicene-2-carboxamide] | 120 ± 20 | 120 ± 50 | 120 ± 30 | 1880 ± 340 | 2680 ± 810 |  |  |  |  |  |
| CC1=C(O)C(=O)C=C2C1=CC=C1[C@@]2(C)CC[C@@]2(C)[C@@H]3C[C@](C)(C(=O)NCCSS(C)(=O)=O)CC[C@]3(C)CC[C@]12C [compound 9, S-(2-((2R,4aS,6aS,12bR,14aS,14bR)-10-hydroxy-2,4a,6a,9,12b,14a-hexamethyl-11-oxo-1,2,3,4,4a,5,6,6a,11,12b,13,14,14a,14b-tetradecahydropicene-2-carboxamido)ethyl) methanesulfonothioate] | 2000 to 4000 | 2000 to 4000 | 4070 ± 50 | 3280 ± 900 | 13000 ± 2480 | 2310 ± 280 | 3070 ± 1360 |  |  |  |
| CC1=C(O)C(=O)C=C2C1=CC=C1[C@@]2(C)CC[C@@]2(C)[C@@H]3C[C@](C)(C(=O)NCCNc4ccnc5cc(Cl)ccc45)CC[C@]3(C)CC[C@]12C [compound 6, (2R,4aS,6aS,12bR,14aS,14bR)-N-(2-((7-chloroquinolin-4-yl)amino)ethyl)-10-hydroxy-2,4a,6a,9,12b,14a-hexamethyl-11-oxo-1,2,3,4,4a,5,6,6a,11,12b,13,14,14a,14b-tetradecahydropicene-2-carboxamide] | 90 ± 30 | 140 ± 30 | 400 ± 30 | 850 ± 240 | 2150 ± 20 |  |  |  |  |  |
| CC1=C(O)C(=O)C=C2C1=CC=C1[C@@]2(C)CC[C@@]2(C)[C@@H]3C[C@](C)(C(=O)O)CC[C@]3(C)CC[C@]12C [CE, celastrol] |  |  |  | 900 ± 300 | 1760 ± 430 |  |  | 210 ± 70 | 490 ± 170 | 380 ± 80 |
| CC1=C(O)C(=O)C=C2C1=CC=C1[C@@]2(C)CC[C@@]2(C)[C@@H]3C[C@](C)(C(=O)NCCN4CCCC4)CC[C@]3(C)CC[C@]12C [compound 3, (2R,4aS,6aS,12bR,14aS,14bR)-10-hydroxy-2,4a,6a,9,12b,14a-hexamethyl-11-oxo-N-(2-(pyrrolidin-1-yl)ethyl)-1,2,3,4,4a,5,6,6a,11,12b,13,14,14a,14b-tetradecahydropicene-2-carboxamide] | < 100 | < 100 | 530 ± 170 | 2790 ± 440 | 4530 ± 50 | 60 ± 10 | 80 ± 40 |  |  |  |
| CC1=C(O)C(=O)C=C2C1=CC=C1[C@@]2(C)CC[C@@]2(C)[C@@H]3C[C@](C)(C(=O)NCCN4CCCCC4)CC[C@]3(C)CC[C@]12C [compound 1, (2R,4aS,6aS,12bR,14aS,14bR)-10-hydroxy-2,4a,6a,9,12b,14a-hexamethyl-11-oxo-N-(2-(piperidin-1-yl)ethyl)-1,2,3,4,4a,5,6,6a,11,12b,13,14,14a,14b-tetradecahydropicene-2-carboxamide] | 60 ± 20 | 90 ± 30 | 510 ± 80 | 2080 ± 240 | 3610 ± 380 |  |  |  |  |  |
